This note sets out measurements from publication PMC7822874, “Chemoprotective antimalarials identified through quantitative high-throughput screening of Plasmodium blood and liver stage parasites” (Scientific Reports, 2021).

Assay [1] deals with P. falciparum Dd2 Cytb G131S. Put plainly: SYBR Green ABS proliferation assay, NCGC00374598 selected clone C11. Format: cell-based, Plasmodium falciparum. The settings on record: Plasmodium falciparum, DD2, cytochrome b mutant line, second value triple, c6; […]; read-out: log AC50, mean (converted). In a few lines:
(§1)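 72 h SYBR Green-I read; % response = relative growth vs controls. Clones from resistance selection, cloned by limiting dilution; 37 °C, 5% CO2/5% O2/90% N2.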

The subject of assay [2] is Plasmodium falciparum Dd2 asexual blood stage parasites. In words: microbe, parasite or virus in culture. Set-up: species or system Plasmodium falciparum Dd2 in human erythrocytes; single determination (one 11-point concentration-response curve). The settings on record: Plasmodium falciparum, DD2, Erythrocyte, 72 h; read-out: AC50.
For assay [3], the system named is P. falciparum Dd2 Cytb V259L. In words: SYBR Green ABS proliferation assay, NCGC00473217 selected clone F06. The format is cell-based, Plasmodium falciparum. The settings on record: Plasmodium falciparum, DD2, cytochrome b mutant line, third value triple, c9; […]; read-out: log AC50, mean (converted). In short, it runs like this:
as §1

The test system of assay [4] is P. falciparum Dd2 Cytb F123L. Put plainly: SYBR Green ABS proliferation assay, NCGC00473217 selected clone G08. The settings on record: Plasmodium falciparum, DD2, cytochrome b mutant line, fifth value triple, c15; […]; read-out: log AC50, mean (converted). Format: cell-based, Plasmodium falciparum. Here is the method: As resistance selection studies implicated the parasite cytochrome bc1 complex in mediating reduced parasite susceptibility to both NCGC00473217 and NCGC00374598, we leveraged these drug-selected parasites to test for altered drug response to a panel of antimalarial compounds.
The P. falciparum parasite Dd2 line was cultured in vitro using standard conditions. […] Tissue culture flasks and assay plates were incubated at 37 °C under a gas mixture of 5% CO2, 5% O2 and 90% N2. […] Significant differences were assessed using two-sided Student’s t-tests. All HTS assays were stopped and read at 72 h. Percent response values represent relative growth as judged by SYBR Green-I fluorescence intensity values normalized to controls.
Fresh uninfected RBCs (0.5% hematocrit) were added on day 7 and media was changed every other day. […] Resistant parasites were maintained under drug media at a volume of 50 mL until a high parasitemia (> 5%) was achieved. Aliquots of the bulk resistant cultures were frozen in cryovials before cloning by limiting dilution in 96-well plates (seeded at 0.25 or 0.5 parasites/well)[70]. After 3 weeks of cloning, we screened for positive wells by flow cytometry with SYBR Green-stained cells. […] Parasites were harvested by saponin lysis at the trophozoite stage and genomic DNA was extracted using the QIAamp DNA Blood Midi Kit (Qiagen, Germantown, MD)[71].

In assay [5] the test system is P. falciparum Dd2 Cytb A122D. In words: SYBR Green ABS proliferation assay, NCGC00473217 selected clone F12. Format: cell-based, Plasmodium falciparum. The settings on record: Plasmodium falciparum, DD2, cytochrome b mutant line, fourth value triple, c12; […]; read-out: log AC50, mean (converted). In a few lines:
as §1

As to `CC(C)c1nc2c(c(-c3ccc(O)cc3)n1)CCN(Cc1ccccc1C(F)(F)F)CC2` [NCGC00480324-01], the AC50 was 4.06 µM in assay [1]; 4.73 µM in assay [2]; 4.73 µM in assay [3]; 4.22 µM in assay [4]; 4.55 µM in assay [5].

`O=c1[nH]c(N2CCOCC2)nc2c1CCN(Cc1ccccc1C(F)(F)F)CC2` [NCGC00440637-01]: the concentration at half-maximal activity (AC50) is 3.61 µM in assay [1]; 4.73 µM in assay [2]; 8.09 µM in assay [3]; 0.618 µM in assay [4]; 2.66 µM in assay [5].

For `COc1ccc(-c2nc(C3CC3)nc3c2CCN(Cc2cccnc2)CC3)cc1` [NCGC00476959-01], the half-maximal activity concentration (AC50) was 13.3 µM in assay [1]; 13.3 µM in assay [2]; 18.1 µM in assay [3]; 13.8 µM in assay [4]; 19.5 µM in assay [5].

On to `O=c1[nH]c(N2CCOCC2)nc2c1CCN(Cc1ccccc1Br)CC2` [NCGC00440625-01], for which the AC50 in assay [1] was 6.43 µM; in assay [2], 15 µM; in assay [3], 9.44 µM; in assay [4], 1.19 µM; in assay [5], 6.93 µM.

Turning to `CN(C)c1nc2c(c(=O)[nH]1)CCN(Cc1ccccc1Br)CC2` [NCGC00440591-01], the half-maximal activity concentration (AC50) in assay [1] was 6.93 µM; in assay [2] it was 9.44 µM; in assay [3] it was 13.3 µM; in assay [4] it was 1.44 µM; in assay [5] it was 5.73 µM.

With `O=c1[nH]c(N2CCOCC2)nc2c1CCN(Cc1cc(Br)ccc1F)CC2` [NCGC00440663-01], the AC50 in assay [1] was 6.68 µM; in assay [2], 5.31 µM; in assay [3], 23.7 µM; in assay [4] it was 3.61 µM; in assay [5], 4.91 µM.

With `Cc1ccc(CN2CCc3nc(C4CC4)nc(-c4ccc(O)cc4)c3CC2)cc1` [NCGC00480348-01], the AC50 in assay [1] is 7.21 µM; in assay [2], 4.73 µM; in assay [3], 6.93 µM; in assay [4], 6.68 µM; in assay [5], 7.78 µM.

For the molecule `CCc1nc2c(c(-c3ccc(O)cc3)n1)CCN(Cc1ccc(OC)cc1)CC2` [NCGC00480297-01], the half-maximal activity concentration (AC50) was 5.11 µM in assay [1]; 6.68 µM in assay [2]; 5.11 µM in assay [3]; 5.31 µM in assay [4]; 6.18 µM in assay [5].

Take `CCCN1C(CC(C)C)=N[S+](=O)([O-])c2cc(NC(=O)Nc3cccs3)ccc21` [NCGC00537523-01]: the AC50 in assay [1] is 2.67 µM; in assay [3] it was 5.22 µM; in assay [4] it was 9.66 µM; in assay [5], 9.29 µM.

Consider `COc1ccc(CN2CCc3nc(C(C)C)nc(-c4ccc(O)cc4)c3CC2)cc1` [NCGC00480318-01], for which the concentration at half-maximal activity (AC50) in assay [1] was 5.11 µM; in assay [3], 9.08 µM; in assay [4] it was 9.08 µM; in assay [5] it was 7.78 µM.

Consider `CCCN1C(CC(C)C)=N[S+](=O)([O-])c2cc(NC(=O)c3ccc4c(c3)OCCO4)ccc21` [NCGC00531778-01], for which the AC50 in assay [1] was 0.224 µM; in assay [3] it was 5.22 µM; in assay [4] it was 13.1 µM; in assay [5], 13.1 µM.

For `CCCN1C(CC(C)C)=N[S+](=O)([O-])c2cc(NC(=O)c3cccc(C(F)(F)F)c3)ccc21` [NCGC00531777-01], the concentration at half-maximal activity (AC50) in assay [1] is 0.71 µM; in assay [3], 1.36 µM; in assay [4] it was 0.00224 µM; in assay [5], 7.52 µM.

For the molecule `CCc1nc2c(c(-c3ccc(O)cc3)n1)CCN(Cc1ccccc1C(F)(F)F)CC2` [NCGC00480300-01], the AC50 is 3.9 µM in assay [1]; 2.99 µM in assay [2]; 4.73 µM in assay [3]; 4.06 µM in assay [4]; 4.22 µM in assay [5].

For the molecule `CN(C)c1nc2c(c(=O)[nH]1)CCN(Cc1ccc(Br)cc1)CC2` [NCGC00440593-01], the half-maximal activity concentration (AC50) in assay [1] is 5.51 µM; in assay [2], 13.3 µM; in assay [3] it was 9.79 µM; in assay [4] it was 1.33 µM; in assay [5], 4.55 µM.

As to `CC(C)c1nc2c(c(-c3ccc(O)cc3)n1)CCN(CC1CCCCC1)CC2` [NCGC00480317-01], the AC50 was 5.73 µM in assay [1]; 4.73 µM in assay [2]; 5.73 µM in assay [3]; 5.11 µM in assay [4]; 8.41 µM in assay [5].

For `COc1ccc(-c2nc(C(C)C)nc3c2CCN(C(=O)c2ccccc2Cl)CC3)cc1` [NCGC00479503-01], the AC50 in assay [1] was 2.28 µM; in assay [3], 15.8 µM; in assay [4] it was 12.3 µM; in assay [5] it was 12.8 µM.

`O=c1[nH]c(N2CCOCC2)nc2c1CCN(Cc1ccc(C(F)(F)F)cc1)CC2` [NCGC00440629-01]: the AC50 was 6.43 µM in assay [1], 15 µM in assay [3], 1.88 µM in assay [4] and 9.08 µM in assay [5].

On to `CC(C)c1nc2c(c(-c3ccc(O)cc3)n1)CCN(C(=O)c1cccc(Cl)c1)CC2` [NCGC00480331-01], for which the AC50 is 17.4 µM in assay [1], 18.1 µM in assay [3], 11.9 µM in assay [4] and 16.8 µM in assay [5].

For `Cc1cc(CN2CCc3nc(C(C)C)nc(-c4ccc(Cl)cc4)c3CC2)no1` [NCGC00374612-01], the concentration at half-maximal activity (AC50) in assay [1] is 15.5 µM; in assay [3] it was 13.8 µM; in assay [4], 9.79 µM; in assay [5], 16.8 µM.

Consider `CCCN1C(CC(C)C)=N[S+](=O)([O-])c2cc(N(Cc3cccs3)Cc3cccs3)ccc21` [NCGC00531812-01], for which the AC50 in assay [1] is 6.32 µM; in assay [3], 3.56 µM; in assay [4] it was 4.66 µM; in assay [5], 3.99 µM.

Regarding `O=c1[nH]c(N2CCOCC2)nc2c1CCN(Cc1ccc(Cl)c(F)c1)CC2` [NCGC00440655-01], the AC50 was 11.4 µM in assay [1], 13.8 µM in assay [3], 4.55 µM in assay [4] and 12.8 µM in assay [5].

For `CC(C)c1nc2c(c(-c3ccc(Cl)cc3)n1)CCN(C(=O)c1ccc(C(F)(F)F)cc1)CC2` [NCGC00374584-01], the AC50 in assay [1] is 6.93 µM; in assay [3], 7.5 µM; in assay [4], 8.41 µM; in assay [5], 7.5 µM.

Regarding `CCCN1C(CC(C)C)=N[S+](=O)([O-])c2cc(NC(=O)c3cccc(OC)c3)ccc21` [NCGC00531773-01], the AC50 was 3.56 µM in assay [1], 7.67 µM in assay [3], 10.6 µM in assay [4] and 10 µM in assay [5].

As for `CCCN1C(Cc2ccccc2)=N[S+](=O)([O-])c2cc(NC(=O)c3ccc(F)cc3)ccc21` [NCGC00532338-01], the AC50 in assay [1] was 0.0893 µM; in assay [3] it was 0.767 µM; in assay [4], 0.356 µM; in assay [5], 3.17 µM.

Take `COc1ccc(-c2nc(C3CC3)nc3c2CCN(Cc2ccccc2)CC3)cc1` [NCGC00374622-01]: the AC50 was 6.43 µM in assay [1], 6.93 µM in assay [3], 6.68 µM in assay [4] and 6.93 µM in assay [5].

`CCCN1C(CC2CCCCC2)=N[S+](=O)([O-])c2cc(NC(=O)c3cccs3)ccc21` [NCGC00532404-01]: the AC50 in assay [1] was 0.966 µM; in assay [3] it was 1.5 µM; in assay [4], 3.99 µM; in assay [5], 1.53 µM.

As to `COc1ccc(-c2nc(C(C)C)nc3c2CCN(C(=O)Cc2ccc(F)cc2)CC3)cc1` [NCGC00479517-01], the concentration at half-maximal activity (AC50) in assay [1] was 15 µM; in assay [3], 18.8 µM; in assay [4] it was 10.6 µM; in assay [5], 16.8 µM.

Regarding `Cc1ccccc1C(=O)N1CCc2nc(C3CC3)nc(-c3ccc(O)cc3)c2CC1` [NCGC00480365-01], the AC50 in assay [1] is 13.8 µM; in assay [3], 12.8 µM; in assay [4], 13.8 µM; in assay [5], 18.1 µM.

For the molecule `CCCN1C(CC(C)C)=N[S+](=O)([O-])c2cc(NC(=O)c3ccc(SC)cc3)ccc21` [NCGC00531764-01], the AC50 in assay [1] is 0.0796 µM; in assay [3] it was 2.12 µM; in assay [4] it was 10 µM; in assay [5], 8.93 µM.

On to `CCCN1C(CC(C)C)=N[S+](=O)([O-])c2cc(NC(=O)c3cccc(Cl)c3)ccc21` [NCGC00531770-01], for which the AC50 in assay [1] is 4.74 µM; in assay [3] it was 3.56 µM; in assay [4] it was 4.48 µM; in assay [5], 2.82 µM.
